From patent publication US12595253B2, “Benzamides of pyrazolylamino-pyrimidinyl derivatives, and compositions and methods thereof” (LYNK PHARMACEUTICALS CO. LTD., priority 2019, dated 2026)

Experiments:
[1] = Rat pharmacokinetic study (intravenous and oral); assay type: in vivo; conditions: male, plasma, Sprague-Dawley rats, intravenous, 1 mg/kg, solution
Procedure: Pharmacokinetic profile of test articles in rodent were evaluated in fasted male ICR mouse and Sprague-Dawley rats. […] Typically, mice were dosed with 2 mg/kg and 10 mg/kg by intravenous injection and oral gavage, respectively. Rats were dosed with 1 mg/kg and 5 mg/kg by intravenous injection and oral gavage, respectively. Beagle dogs were dosed with 1 mg/kg and 5 mg/kg by intravenous injection and oral gavage, respectively. After dosing, blood samples were collected at each time point. For IV injection group, time points were set at 5, 15, 30 min, and then 1, 2, 4, 8 and 24 hours after dosing. For oral gavage group, timepoints were set at 15, 30 m, and then 1, 2, 4, 8, and 24 hours. Blood was collected into appropriately labeled tubes containing K2EDTA as the anticoagulant. Plasma was obtained within 1 hours of blood collection by centrifugation at 8000×g and 4° C. for 6 minutes, and then stored at −20° C. until analyzed by LCMS/MS for quantification.

[2] = Mouse pharmacokinetic study (intravenous and oral); assay type: in vivo; conditions: male, plasma, ICR mice, solution
Procedure: Pharmacokinetic profile of test articles in rodent were evaluated in fasted male ICR mouse and Sprague-Dawley rats. […] Rats were dosed with 1 mg/kg and 5 mg/kg by intravenous injection and oral gavage, respectively. Beagle dogs were dosed with 1 mg/kg and 5 mg/kg by intravenous injection and oral gavage, respectively. After dosing, blood samples were collected at each time point. For IV injection group, time points were set at 5, 15, 30 min, and then 1, 2, 4, 8 and 24 hours after dosing. For oral gavage group, timepoints were set at 15, 30 m, and then 1, 2, 4, 8, and 24 hours. Blood was collected into appropriately labeled tubes containing K2EDTA as the anticoagulant. Plasma was obtained within 1 hours of blood collection by centrifugation at 8000×g and 4° C. for 6 minutes, and then stored at −20° C. until analyzed by LCMS/MS for quantification.

[3] = Mini-pig dermal pharmacokinetic study; assay type: in vivo, Guangxi Bama mini-pigs; conditions: topical administration
Text: The aim of this study was to obtain the topical distribution of test articles in mini-pig after topical administration. Test articles were formulated in 50% PEG400, 10% transcutol and 40% PEG3350 (50% in water), and then applied to male Guangxi Bama mini-pigs (17-20 kg). Twenty-four hour prior to dosing, the hair of the mini-pig was shaved in left and right sides of the back. Two areas at least 5 cm apart at each side of the back were exposed (a total of four areas, each of which was about 112 cm^2). At the time zero, the test article was dosed to the exposed skins with […]. After dosing, the blood and skin samples were collected at 0.5, 1, 3, 6 hour. The blood was taken via venipuncture, and collected to the tubes containing heparin sodium as the anticoagulant. Exposed skin was washed with soap and water before skin sample was collected. Upon the dosed skin the punch biopsy from the epidermis layer to the muscle layer were taken at each time point. Epidermis, dermis, subcutis and subcutaneous muscle were quickly separated, weighed and frozen in dry ice. Epidermis and dermis were homogenized in 1:3 (w/v) normal saline. Homogenized samples were extracted with 3 fold volumes of acetonitrile and quantified against a standard curve with LC-MS/MS system.

| AUC [1] [ng·h/mL] | Vd [1] [L/kg] | clearance [1] [mL/min/kg] | half-life [1] [min] | AUC ([2]; intravenous, 1 mg/kg) [ng·h/mL] | Vd ([2]; intravenous, 1 mg/kg) [L/kg] | clearance ([2]; intravenous, 1 mg/kg) [mL/min/kg] | half-life ([2]; intravenous, 1 mg/kg) [min] | AUC ([2]; oral, 5 mg/kg) [ng·h/mL] | Cmax ([2]; oral, 5 mg/kg) [ng/mL] | bioavailability ([2]; oral, 5 mg/kg) [%] | half-life ([2]; oral, 5 mg/kg) [min] | Dermis, AUC0-last ([3]; dermis) [ng·h/g] | Epidermis AUC0-last ([3]; epidermis) [ng·h/g] | Compound |
| --- | --- | --- | --- | --- | --- | --- | --- | --- | --- | --- | --- | --- | --- | --- |
| 855 | 0.37 | 19.4 | 13.2 |  |  |  |  |  |  |  |  |  |  | Cc1cnc(Nc2cnn(CC#N)c2)nc1-c1ccc(C(=O)NCC#N)cc1 [Example 4, N-(Cyanomethyl)-4-(2-((1-(cyanomethyl)-1H-pyrazol-4-yl)amino)-5-methylpyrimidin-4-yl)benzamide] |
|  |  |  |  | 279 | 0.67 | 59.5 | 7.8 | 113 | 175 | 8.26 | 102 | 5209.4 | 107236.9 | Cc1cnc(Nc2cnn(C3CC(C)(C)OC(C)(C)C3)c2)nc1-c1ccc(C(=O)NCC#N)cc1 [Example 113, N-(cyanomethyl)-4-(5-methyl-2-((1-(2,2,6,6-tetramethyltetrahydro-2H-pyran-4-yl)-1H-pyrazol-4-yl)amino)pyrimidin-4-yl)benzamide] |
